{"source": "ChEMBL document CHEMBL5518157", "about": "“Strategies of targeting CYP51 for IFIs therapy: Emerging prospects, opportunities and challenges” (Eur J Med Chem, 2023)", "key": {"Candida albicans [1]": {"tested_on": "Candida albicans", "experiment": "Antifungal activity against Candida albicans SC5314 assessed as reduction in microbial growth incubated for 24 hrs by serial dilution method", "assay_type": "functional"}, "Trichophyton rubrum [2]": {"tested_on": "Trichophyton rubrum", "experiment": "Antifungal activity against Trichophyton rubrum 0501124 assessed as inhibition of fungal growth incubated for 24 hrs by broth microdilution method", "assay_type": "functional"}, "Candida albicans [3]": {"tested_on": "Candida albicans", "experiment": "Antifungal activity against Candida albicans assessed as reduction in microbial growth", "assay_type": "functional"}, "Trichophyton rubrum [4]": {"tested_on": "Trichophyton rubrum", "experiment": "Antifungal activity against Trichophyton rubrum assessed as fungal growth inhibition incubated for 5 to 7 days by NCCLS based assay", "assay_type": "functional", "settings": "time 5-7 day"}, "Nannizzia gypsea": {"tested_on": "Nannizzia gypsea", "experiment": "Antifungal activity against Microsporum gypseum assessed as fungal growth inhibition incubated for 48 hrs by microplate reader assay", "assay_type": "functional"}, "Candida albicans [5]": {"tested_on": "Candida albicans", "experiment": "Antifungal activity against Candida albicans ATCC 76615 assessed as fungal growth inhibition incubated for 5 to 7 days by NCCLS based assay", "assay_type": "functional", "settings": "time 5-7 day"}, "Candida albicans [6]": {"tested_on": "Candida albicans", "experiment": "Antifungal activity against Candida albicans ATCC 10231 assessed as growth inhibition measured for 24 hrs by CLSI based method", "assay_type": "functional"}, "Pichia kudriavzevii": {"tested_on": "Pichia kudriavzevii", "experiment": "Antifungal activity against Candida krusei ATCC 6258 assessed as reduction in fungal growth by NCCLS method", "assay_type": "functional"}, "Cytochrome P450 3A4": {"target": "Cytochrome P450 3A4 (Homo sapiens, UniProt P08684)", "sequence (P08684 whole entry)": "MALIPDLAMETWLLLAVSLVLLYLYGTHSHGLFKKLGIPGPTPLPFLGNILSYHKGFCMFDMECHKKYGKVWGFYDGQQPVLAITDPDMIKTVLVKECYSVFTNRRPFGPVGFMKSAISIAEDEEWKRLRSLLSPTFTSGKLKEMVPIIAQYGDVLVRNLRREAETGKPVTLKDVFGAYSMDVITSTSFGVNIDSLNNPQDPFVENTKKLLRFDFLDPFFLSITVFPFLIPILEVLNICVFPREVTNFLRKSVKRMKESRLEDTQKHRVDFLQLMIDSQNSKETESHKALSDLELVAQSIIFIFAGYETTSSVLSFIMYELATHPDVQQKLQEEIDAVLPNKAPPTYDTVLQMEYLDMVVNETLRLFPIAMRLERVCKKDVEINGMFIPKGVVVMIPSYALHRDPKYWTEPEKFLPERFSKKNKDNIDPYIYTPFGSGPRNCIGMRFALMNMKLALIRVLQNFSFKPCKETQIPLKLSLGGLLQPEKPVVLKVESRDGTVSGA", "experiment": "Inhibition of CYP3A4 (unknown origin)", "assay_type": "ADME"}, "Candida albicans [7]": {"tested_on": "Candida albicans", "experiment": "Antifungal activity against Candida albicans SC5314 assessed as reduction in fungal growth incubated for 24 hrs by serial dilution method", "assay_type": "functional"}, "Candida albicans [8]": {"tested_on": "Candida albicans", "experiment": "Antifungal activity against Candida albicans ATCC 10231 assessed as growth inhibition measured after 48 hrs by CLSI based method", "assay_type": "functional, organism-based", "settings": "ATCC 10231, 48 h"}, "[Candida] auris": {"tested_on": "[Candida] auris", "experiment": "Antifungal activity against Candida auris CBS 12373 assessed as reduction in microbial growth incubated for 24 hrs by serial dilution method", "assay_type": "functional", "settings": "Candidozyma auris"}, "Candida albicans [9]": {"tested_on": "Candida albicans", "experiment": "Antifungal activity against Candida albicans ATCC 96901", "assay_type": "functional"}, "Candida albicans [10]": {"tested_on": "Candida albicans", "experiment": "Antifungal activity against Candida albicans assessed as reduction in fungal growth incubated for 24 hrs by broth microdilution method", "assay_type": "functional, organism-based"}, "Candida albicans [11]": {"tested_on": "Candida albicans", "experiment": "Antimicrobial activity against Candida albicans 90028 assessed as microbial growth inhibition by broth microdilution method", "assay_type": "functional"}, "Nakaseomyces glabratus": {"tested_on": "Nakaseomyces glabratus", "experiment": "Antifungal activity against Candida glabrata ATCC 15126 assessed as reduction in fungal growth incubated for 24 hrs by CLSI based microdilution analysis", "assay_type": "functional"}, "Aspergillus fumigatus": {"tested_on": "Aspergillus fumigatus", "experiment": "Antifungal activity against Aspergillus fumigatus CGMCC3 7795 assessed as reduction in fungal growth incubated for 48 hrs by CLSI based microdilution analysis", "assay_type": "functional"}}}
{"smiles": "O[C@@](Cn1cnnn1)(c1ccc(F)cc1F)C(F)(F)c1ccc(-c2ccc(OC(F)(F)F)cc2)cn1", "values": [{"measurement": "MIC50", "setting": "Candida albicans [1]", "value": "≤ 0.001", "unit": "µg/mL"}]}
{"smiles": "OC(Cn1cnnn1)(c1ccc(F)cc1F)C(F)(F)c1ccc(C#Cc2ccc(F)cc2)cn1", "note": "(centres undefined)", "values": [{"measurement": "MIC50", "setting": "Trichophyton rubrum [2]", "value": "> 64", "unit": "µg/mL"}]}
{"smiles": "N#Cc1ccc(COc2ccc(C#Cc3ccc(C(F)(F)C(O)(Cn4cnnn4)c4ccc(F)cc4F)nc3)cc2)cc1", "note": "(centres undefined)", "values": [{"measurement": "MIC50", "setting": "Candida albicans [3]", "value": 0.031, "unit": "µg/mL"}, {"measurement": "MIC50", "setting": "Trichophyton rubrum [2]", "value": 8, "unit": "µg/mL"}]}
{"smiles": "O=c1n(-c2ccc(C(F)(F)C(O)(Cn3cnnn3)c3ccc(F)cc3F)nc2)cnn1C1CCCC1", "note": "(centres undefined)", "values": [{"measurement": "MIC80", "setting": "Trichophyton rubrum [4]", "value": 0.125, "unit": "µg/mL"}]}
{"smiles": "CC(C)(C)Cn1ncn(-c2ccc(C(F)(F)C(O)(Cn3cnnn3)c3ccc(F)cc3F)nc2)c1=O", "note": "(centres undefined)", "values": [{"measurement": "MIC80", "setting": "Trichophyton rubrum [4]", "value": 2, "unit": "µg/mL"}, {"measurement": "MIC80", "setting": "Nannizzia gypsea", "value": 4, "unit": "µg/mL"}, {"measurement": "MIC50", "setting": "Trichophyton rubrum [2]", "value": 2, "unit": "µg/mL"}]}
{"smiles": "O=c1n(-c2ccc(C(F)(F)C(O)(Cn3cnnn3)c3ccc(F)cc3F)nc2)cnn1C1CCCCC1", "note": "(centres undefined)", "values": [{"measurement": "MIC80", "setting": "Trichophyton rubrum [4]", "value": 2, "unit": "µg/mL"}, {"measurement": "MIC80", "setting": "Nannizzia gypsea", "value": 4, "unit": "µg/mL"}, {"measurement": "MIC50", "setting": "Trichophyton rubrum [2]", "value": 2, "unit": "µg/mL"}]}
{"smiles": "C[C@H](NC(=O)c1ccc2ccccc2n1)C(=O)NCc1ccncc1", "values": [{"measurement": "MIC", "setting": "Candida albicans [5]", "value": 0.125, "unit": "µg/mL"}]}
{"smiles": "O=C(CNC(=O)c1ccc2ccccc2n1)NCc1ccncc1", "values": [{"measurement": "MIC", "setting": "Candida albicans [5]", "value": 0.125, "unit": "µg/mL"}]}
{"smiles": "Clc1ccc(C(Cn2ccnc2)[Se]Cc2ccccc2Cl)c(Cl)c1", "note": "(centres undefined)", "values": [{"measurement": "MIC", "setting": "Candida albicans [6]", "value": 0.01, "unit": "µg/mL"}]}
{"smiles": "Fc1ccc([Se]C(Cn2ccnc2)c2ccc(F)cc2F)cc1", "note": "(centres undefined)", "values": [{"measurement": "MIC", "setting": "Candida albicans [6]", "value": 0.02, "unit": "µg/mL"}]}
{"smiles": "CC(C)Cc1ccc([C@H](C)C(=O)NC[C@](O)(Cn2cncn2)c2ccc(F)cc2F)cc1", "values": [{"measurement": "MIC80", "setting": "Pichia kudriavzevii", "value": 0.003, "unit": "µg/mL"}]}
{"smiles": "C[C@H](C(=O)NC[C@](O)(Cn1cncn1)c1ccc(F)cc1F)c1ccc(-c2ccccc2)c(F)c1", "values": [{"measurement": "MIC80", "setting": "Pichia kudriavzevii", "value": 0.007, "unit": "µg/mL"}]}
{"smiles": "CC(C)(C)c1ccc(-c2nnc(Nc3ccc(Cl)cc3)o2)cc1", "values": [{"measurement": "IC50", "setting": "Cytochrome P450 3A4", "value": 30.5, "unit": "µM"}, {"measurement": "MIC50", "setting": "Candida albicans [7]", "value": 0.5, "unit": "µg/mL"}, {"measurement": "IC50", "setting": "Candida albicans [8]", "value": 0.9, "unit": "µg/mL"}, {"measurement": "MIC50", "setting": "[Candida] auris", "value": 0.8, "unit": "µg/mL"}]}
{"smiles": "Cc1ccccc1[Se]C(Cn1ccnc1)c1ccc(Cl)cc1", "note": "(centres undefined)", "values": [{"measurement": "MIC", "setting": "Candida albicans [6]", "value": 0.03, "unit": "µg/mL"}]}
{"smiles": "Clc1ccc(C(Cn2ccnc2)[Se]C(Cn2ccnc2)c2ccc(Cl)cc2)cc1", "note": "(centres undefined)", "values": [{"measurement": "MIC", "setting": "Candida albicans [3]", "value": 2, "unit": "µg/mL"}]}
{"smiles": "Clc1ccc(C(Cn2ccnc2)[Se][Se]C(Cn2ccnc2)c2ccc(Cl)cc2Cl)c(Cl)c1", "note": "(centres undefined)", "values": [{"measurement": "MIC", "setting": "Candida albicans [9]", "value": 0.25, "unit": "µg/mL"}]}
{"smiles": "O=C(N[C@@H](Cn1ccnc1)C(=O)NCc1ccccc1)c1ccc2ccccc2c1", "values": [{"measurement": "MIC", "setting": "Candida albicans [5]", "value": 0.25, "unit": "µg/mL"}]}
{"smiles": "Cc1cccc(C)c1[Se]C(Cn1ccnc1)c1ccc(Cl)cc1", "note": "(centres undefined)", "values": [{"measurement": "MIC", "setting": "Candida albicans [3]", "value": 0.03, "unit": "µg/mL"}]}
{"smiles": "C[C@H](NC(=O)c1ccc2c(c1)OCCO2)C(=O)NCc1ccncc1", "values": [{"measurement": "MIC", "setting": "Candida albicans [5]", "value": 0.125, "unit": "µg/mL"}]}
{"smiles": "Cc1cccc(C)c1[Se]C(Cn1ccnc1)c1ccc(F)cc1", "note": "(centres undefined)", "values": [{"measurement": "MIC", "setting": "Candida albicans [6]", "value": 0.03, "unit": "µg/mL"}]}
{"smiles": "CCC/C=C/C=C/C=C(\\C)[C@@H]1OC[C@H](C)[C@H](OC)[C@H]1OC(=O)CN", "values": [{"measurement": "IC50", "setting": "Candida albicans [10]", "value": 0.47, "unit": "µM"}]}
{"smiles": "CC(C)[C@H](NC(=O)c1ccc2c(c1)OCCO2)C(=O)NCc1cccnc1", "values": [{"measurement": "MIC", "setting": "Candida albicans [5]", "value": 0.125, "unit": "µg/mL"}]}
{"smiles": "CC(C)[C@@H](C)/C=C/[C@@H](C)[C@H]1CC[C@H]2C3=CC=C4C[C@@H](O)CC[C@]4(C)[C@H]3CC[C@]12C", "note": "[ERGOSTEROL]", "values": [{"measurement": "MIC90", "setting": "Candida albicans [11]", "value": 512, "unit": "µg/mL"}]}
{"smiles": "O=C(O)c1cc(O)c(O)c(O)c1", "note": "[GALLIC ACID]", "values": [{"measurement": "MIC", "setting": "Nakaseomyces glabratus", "value": 12.5, "unit": "µg/mL"}]}
{"smiles": "N#Cc1ccc(COc2ccc(C#Cc3ccc(C(F)(F)[C@](O)(Cn4cnnn4)c4ccc(F)cc4F)nc3)cc2)cc1", "note": "[VT-1598]", "values": [{"measurement": "MIC50", "setting": "Candida albicans [3]", "value": 0.007, "unit": "µg/mL"}, {"measurement": "MIC50", "setting": "Aspergillus fumigatus", "value": 0.25, "unit": "µg/mL"}]}
